Each structure is given as a SMILES string. “And” between values parts separate entries of the source, which are not always exact repeats. Equal values may be shown once. Read-outs that look alike come from different tables or passages of the source.

By EC50 is commonly meant the midpoint of the concentration-response curve.

For data set [1] the following is noted: snar bond, DMSO.
Data set [2] has as its target CFTR-mediated chloride transport (Homo sapiens, UniProt P13569). The data set is classed as cell-based. Conditions: enteroid cells incubated with test compound 18-24 hours, acute 10 μM forskolin and 300 nM Compound III; for Max. Activity: % of chloride transport with 3 μM Compound A, 3 μM Compound II and 300 nM acute Compound III triple combination control. The gist of the method:
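Human intestinal enteroid cells incubated with compound 18–24 h at 37° C., then membrane potential dye (FLIPR) read 15 min after chloride-free stimulation with 10 μM forskolin, 100 μM IBMX and 300 nM Compound III. AUC expressed as % of triple-combination control (3 μM Compound A, 3 μM Compound II, 300 nM Compound III).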

Sequence of CFTR-mediated chloride transport (P13569 whole entry, looked up): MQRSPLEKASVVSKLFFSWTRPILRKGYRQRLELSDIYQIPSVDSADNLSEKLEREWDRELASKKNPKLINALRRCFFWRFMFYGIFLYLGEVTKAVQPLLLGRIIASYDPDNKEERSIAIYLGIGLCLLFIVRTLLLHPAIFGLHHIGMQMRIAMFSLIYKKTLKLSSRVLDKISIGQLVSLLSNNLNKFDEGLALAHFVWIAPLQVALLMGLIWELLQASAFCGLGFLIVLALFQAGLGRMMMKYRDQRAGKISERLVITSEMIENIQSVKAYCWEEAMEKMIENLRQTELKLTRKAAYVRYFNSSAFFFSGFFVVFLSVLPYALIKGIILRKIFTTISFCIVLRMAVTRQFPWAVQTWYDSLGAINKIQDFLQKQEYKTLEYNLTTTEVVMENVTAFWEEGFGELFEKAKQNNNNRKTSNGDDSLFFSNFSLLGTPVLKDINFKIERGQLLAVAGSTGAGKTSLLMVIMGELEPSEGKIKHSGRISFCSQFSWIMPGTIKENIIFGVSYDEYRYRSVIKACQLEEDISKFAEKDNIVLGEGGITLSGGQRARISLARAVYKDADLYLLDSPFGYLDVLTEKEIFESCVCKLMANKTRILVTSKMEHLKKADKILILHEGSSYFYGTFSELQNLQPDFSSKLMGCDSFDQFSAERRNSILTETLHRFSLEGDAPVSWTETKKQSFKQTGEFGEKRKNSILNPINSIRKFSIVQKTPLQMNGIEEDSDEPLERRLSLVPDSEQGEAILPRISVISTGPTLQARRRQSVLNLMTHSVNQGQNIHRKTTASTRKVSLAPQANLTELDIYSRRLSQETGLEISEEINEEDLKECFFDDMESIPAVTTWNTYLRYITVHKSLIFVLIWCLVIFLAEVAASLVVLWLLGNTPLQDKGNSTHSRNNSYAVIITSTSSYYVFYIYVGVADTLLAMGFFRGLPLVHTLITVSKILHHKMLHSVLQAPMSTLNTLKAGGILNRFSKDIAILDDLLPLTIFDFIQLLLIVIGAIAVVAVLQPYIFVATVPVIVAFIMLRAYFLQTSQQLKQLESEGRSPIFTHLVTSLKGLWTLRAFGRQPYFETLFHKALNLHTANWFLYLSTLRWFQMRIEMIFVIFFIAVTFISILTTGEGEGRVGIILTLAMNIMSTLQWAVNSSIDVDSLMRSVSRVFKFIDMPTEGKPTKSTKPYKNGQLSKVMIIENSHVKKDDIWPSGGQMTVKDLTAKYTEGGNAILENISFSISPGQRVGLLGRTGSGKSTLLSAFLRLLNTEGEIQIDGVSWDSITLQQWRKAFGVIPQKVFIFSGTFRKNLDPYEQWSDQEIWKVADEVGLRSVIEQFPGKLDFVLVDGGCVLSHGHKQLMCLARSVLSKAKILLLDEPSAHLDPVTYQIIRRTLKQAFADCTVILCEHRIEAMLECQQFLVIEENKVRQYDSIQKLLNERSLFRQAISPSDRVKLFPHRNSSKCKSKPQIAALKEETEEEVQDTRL

The molecule `Cc1ccc2nc1S(=O)(=O)NC(=O)c1ccc(-n3ccc(OCCC4(C(F)(F)F)CC4)n3)nc1N1CC(CCCN2)CC1(C)C` (stereo not drawn) [Compound 129, 12,12,22-Trimethyl-8-(3-{2-[1-(trifluoromethyl)cyclopropyl]ethoxy}-1H-pyrazol-1-yl)-2λ^6-thia-3,9,11,18,23-pentaazatetracyclo[17.3.1.111,14.05,10]tetracosa-1(23),5(10),6,8,19,21-hexaene-2,2,4-trione] showed a ring closure, yield after HPLC in data set [1] (from Cc1ccc(NCCCC2CN(C(=O)OC(C)(C)C)C(C)(C)C2)nc1S(=O)(=O)NC(=O)c1ccc(-n2ccc(OCCC3(C(F)(F)F)CC3)n2)nc1Cl, 15-membered ring, K2CO3/CsF/3A MS, 79.1 mM, 140.0 °C, 2 steps) of 34%. Also, in data set [2], the EC50 was less than 1 µM and the “Max. Activity” value is “+++ (+++ is >60%)”.

Consider `CC1(C)CC2CCCCNc3ccc(cn3)S(=O)(=O)NC(=O)c3ccc(-n4ccc(OCCC(C5CC5)C5CC5)n4)nc3N1C2` (stereo not drawn) [Compound 130, 8-[3-(3,3-Dicyclopropylpropoxy)-1H-pyrazol-1-yl]-12,12-dimethyl-2λ^6-thia-3,9,11,19,21-pentaazatetracyclo[18.2.2.111,14.05,10]pentacosa-1(22),5,7,9,20,23-hexaene-2,2,4-trione], for which the ring closure, yield after HPLC in data set [1] (from CC(C)(C)OC(=O)N1CC(CCCCNc2ccc(S(=O)(=O)NC(=O)c3ccc(-n4ccc(OCCC(C5CC5)C5CC5)n4)nc3Cl)cn2)CC1(C)C, 17-membered ring, K2CO3/CsF/3A MS, 107.7 mM, 160.0 °C, 2 steps) is 15%. Also, in data set [2], the EC50 is less than 1 µM and the “Max. Activity” value is listed as “+++ (+++ is >60%)”.

In data set [1] (from CC(C)(C)OC(=O)N1C(CCCNc2cccc(S(=O)(=O)NC(=O)c3ccc(-n4ccc(OCCC(C5CC5)C5CC5)n4)nc3Cl)n2)CCC1(C)C, 14-membered ring, K2CO3/CsF/3A MS, 94.1 mM, 150.0 °C, 2 steps), `CC1(C)CCC2CCCNc3cccc(n3)S(=O)(=O)NC(=O)c3ccc(-n4ccc(OCCC(C5CC5)C5CC5)n4)nc3N21` (stereo not drawn) [Compound 131, 8-[3-(3,3-Dicyclopropylpropoxy)-1H-pyrazol-1-yl]-12,12-dimethyl-2λ^6-thia-3,9,11,19,24-pentaazatetracyclo[18.3.1.05,10.011,15]tetracosa-1(23),5(10),6,8,20(24),21-hexaene-2,2,4-trione] gave a ring closure, yield after HPLC of 39%. In data set [2], the EC50 is less than 1 µM and the “Max. Activity” value was “++ (++ is 30-60%)”.

As to `CC1(C)CC2CCCn3ccc(n3)S(=O)(=O)NC(=O)c3ccc(-n4ccc(OCCC(C5CC5)C5CC5)n4)nc3N1C2` (stereo not drawn) [Compound 141, 4-[3-(3,3-Dicyclopropylpropoxy)-1H-pyrazol-1-yl]-20,20-dimethyl-10λ^6-thia-1,3,9,14,22-pentaazatetracyclo[16.2.1.111,14.02,7]docosa-2,4,6,11(22),12-pentaene-8,10,10-trione], in data set [1] (from CC(C)(C)OC(=O)N1CC(CCCn2ccc(S(=O)(=O)NC(=O)c3ccc(-n4ccc(OCCC(C5CC5)C5CC5)n4)nc3Cl)n2)CC1(C)C, 14-membered ring, K2CO3/CsF/3A MS, 66.2 mM, 150.0 °C, 2 steps), the ring closure, yield after HPLC is 23% and 22%. In addition, in data set [2], the EC50 was less than 1 µM and the “Max. Activity” value is on record as “+++ (+++ is >60%)”.

For `CC1(C)CCC2CCCOc3cccc(n3)S(=O)(=O)NC(=O)c3ccc(-n4ccc(OCCC5(C(F)(F)F)CC5)n4)nc3N21` (stereo not drawn) [Compound 147, 12,12-dimethyl-8-(3-{2-[1-(trifluoromethyl)cyclopropyl]ethoxy}-1H-pyrazol-1-yl)-19-oxa-2λ^6-thia-3,9,11,24-tetraazatetracyclo[18.3.1.05,10.011,15]tetracosa-1(24),5(10),6,8,20,22-hexaene-2,2,4-trione], in data set [1] (from CC(C)(C)OC(=O)N1C(CCCOc2cccc(S(=O)(=O)NC(=O)c3ccc(-n4ccc(OCCC5(C(F)(F)F)CC5)n4)nc3Cl)n2)CCC1(C)C, 14-membered ring, K2CO3/CsF/3A MS, 66.1 mM, 140.0 °C, 2 steps), the ring closure, yield after HPLC is 5%. In data set [2], the EC50 was less than 1 µM and the “Max. Activity” value is recorded as “++ (++ is 30-60%)”.

Molecule `CC1(C)CC2CN1c1nc(-n3ccc(OCCC4(C(F)(F)F)CC4)n3)ccc1C(=O)NS(=O)(=O)c1ccnn1CCO2` (stereo not drawn) [Compound 152, 21,21-dimethyl-4-(3-{2-[1-(trifluoromethyl)cyclopropyl]ethoxy}-1H-pyrazol-1-yl)-18-oxa-10λ^6-thia-1,3,9,14,15-pentaazatetracyclo[17.2.1.02,7.011,15]docosa-2(7),3,5,11,13-pentaene-8,10,10-trione] yielded a ring closure, yield after HPLC in data set [1] (from CC(C)(C)OC(=O)N1CC(OCCn2ccc(S(=O)(=O)NC(=O)c3ccc(-n4ccc(OCCC5(C(F)(F)F)CC5)n4)nc3Cl)n2)CC1(C)C, 13-membered ring, K2CO3/CsF/3A MS, 62.0 mM, 140.0 °C, 2 steps) of 34%. Moreover, in data set [2], the half-maximal effective concentration (EC50) was greater than 3 µM and the “Max. Activity” value was “+ (+ is <30%)”.

`CC1(C)CC2CN1c1nc(-n3ccc(OCCCC4(C(F)(F)F)CC4)n3)ccc1C(=O)NS(=O)(=O)c1cccc(n1)NCCO2` (stereo not drawn) [Compound 157] displayed a ring closure, yield after HPLC in data set [1] (from CC1(C)CC(OCCNc2cccc(S(=O)(=O)NC(=O)c3ccc(-n4ccc(OCCCC5(C(F)(F)F)CC5)n4)nc3Cl)n2)CN1, 15-membered ring, K2CO3/CsF/4A MS, 105.0 mM, 150.0 °C) of 34%. Moreover, in data set [2], the EC50 is less than 1 µM and the “Max. Activity” value is “+++ (+++ is >60%)”.

The molecule `CN1CCCC2CN(c3nc(-n4ccc(OCCC(C5CC5)C5CC5)n4)ccc3C(=O)NS(=O)(=O)c3cccc1n3)C(C)(C)C2` (stereo not drawn) [Compound 189, 8-[3-(3,3-Dicyclopropylpropoxy)-1H-pyrazol-1-yl]-12,12,18-trimethyl-2λ^6-thia-3,9,11,18,23-pentaazatetracyclo[17.3.1.111,14.05,10]tetracosa-1(22),5,7,9,19(23),20-hexaene-2,2,4-trione] registered a ring closure, yield after HPLC in data set [1] (from CN(CCCC1CNC(C)(C)C1)c1cccc(S(=O)(=O)NC(=O)c2ccc(-n3ccc(OCCC(C4CC4)C4CC4)n3)nc2Cl)n1, 15-membered ring, K2CO3/CsF/4A MS, 24.8 mM, 130.0 °C, 2 steps) of 60%. For the same molecule, in data set [2], the EC50 is less than 1 µM and the “Max. Activity” value is “+++ (+++ is >60%)”.

Consider `CC1(C)C[C@H]2CCCNc3cccc(n3)S(=O)(=O)NC(=O)c3ccc(-n4ccc(OCCCC5(C(F)(F)F)CC5)n4)nc3N1C2` [Compound 190, (14R)-12,12-dimethyl-8-(3-{3-[1-(trifluoromethyl)cyclopropyl]propoxy}-1H-pyrazol-1-yl)-2λ^6-thia-3,9,11,18,23-pentaazatetracyclo[17.3.1.111,14.05,10]tetracosa-1(23),5,7,9,19,21-hexaene-2,2,4-trione], for which the ring closure, yield after HPLC in data set [1] (from CC1(C)CC(CCCNc2cccc(S(=O)(=O)NC(=O)c3ccc(-n4ccc(OCCCC5(C(F)(F)F)CC5)n4)nc3Cl)n2)CN1, 15-membered ring, K2CO3/CsF/4A MS, 102.3 mM, 150.0 °C, 2 steps) was 49%. Further, in data set [2], the concentration for a half-maximal effect (EC50) was less than 1 µM and the “Max. Activity” value is reported as “++ (++ is 30-60%)”.

In data set [1] (from Cc1cn(CCCC2CNC(C)(C)C2)nc1S(=O)(=O)NC(=O)c1ccc(-n2ccc(OCCC3(C(F)(F)F)CC3)n2)nc1Cl, 14-membered ring, K2CO3/CsF/3A MS, 27.4 mM, 150.0 °C), `Cc1cn2nc1S(=O)(=O)NC(=O)c1ccc(-n3ccc(OCCC4(C(F)(F)F)CC4)n3)nc1N1CC(CCC2)CC1(C)C` (stereo not drawn) [Compound 199, 12,20,20-trimethyl-4-(3-{2-[1-(trifluoromethyl)cyclopropyl]ethoxy}-1H-pyrazol-1-yl)-10λ^6-thia-1,3,9,14,22-pentaazatetracyclo[16.2.1.111,14.02,7]docosa-2(7),3,5,11(22),12-pentaene-8,10,10-trione] showed a ring closure, yield after HPLC of 12%. Also, in data set [2], the EC50 was less than 1 µM and the “Max. Activity” value was “++ (++ is 30-60%)”.

As to `CC1(C)C[C@@H]2CCCNc3cccc(n3)S(=O)(=O)NC(=O)c3ccc(-n4ccc(OCC(C)(C)C(F)(F)F)n4)nc3N1C2` [Compound 208, (14S)-12,12-dimethyl-8-[3-(3,3,3-trifluoro-2,2-dimethylpropoxy)-1H-pyrazol-1-yl]-2λ^6-thia-3,9,11,18,23-pentaazatetracyclo[17.3.1.111,14.05,10]tetracosa-1(22),5,7,9,19(23),20-hexaene-2,2,4-trione], the ring closure, yield after HPLC in data set [1] (from CC1(C)C[C@H](CCCNc2cccc(S(=O)(=O)NC(=O)c3ccc(-n4ccc(OCC(C)(C)C(F)(F)F)n4)nc3Cl)n2)CN1, 15-membered ring, K2CO3/CsF/3A MS, 57.7 mM, 150.0 °C) was found to be 51%. In data set [2], the EC50 was less than 1 µM and the “Max. Activity” value is “+++ (+++ is >60%)”.

With `CC1(C)C[C@@H]2CCCNc3cccc(n3)S(=O)(=O)NC(=O)c3ccc(-n4ccc(OCCC(C)(C)C(F)(F)F)n4)nc3N1C2` [Compound 212, (14S)-12,12-Dimethyl-8-[3-(4,4,4-trifluoro-3,3-dimethylbutoxy)-1H-pyrazol-1-yl]-2λ^6-thia-3,9,11,18,23-pentaazatetracyclo[17.3.1.111,14.05,10]tetracosa-1(22),5,7,9,19(23),20-hexaene-2,2,4-trione], the ring closure, yield after HPLC in data set [1] (from CC(C)(C)OC(=O)N1C[C@@H](CCCNc2cccc(S(=O)(=O)NC(=O)c3ccc(-n4ccc(OCCC(C)(C)C(F)(F)F)n4)nc3Cl)n2)CC1(C)C, 15-membered ring, K2CO3/CsF/3A MS, 21.2 mM, 130.0 °C, 2 steps) worked out at 51%. In data set [2], the EC50 was less than 1 µM and the “Max. Activity” value is reported as “+++ (+++ is >60%)”.

The record behind these values is patent US11866450B2, “Modulators of Cystic Fibrosis Transmembrane Conductance regulator, pharmaceutical compositions, methods of treatment, and process for making the modulators” (priority 2018, dated 2024).
